According to patent publication US10913745B2, “Octahydro-pyrrolo[3,4-c]-pyrrole derivatives and analogs thereof as autotaxin inhibitors” (Hoffmann-La Roche Inc., priority 2013, dated 2021):

biological target: ATX (human His-tagged) (Homo sapiens (Human), UniProt Q13822); assay: Human ATX enzyme inhibition assay (fluorescence quenching, MR121 substrate); assay type: biochemical; conditions: MR121 substrate 1 μM, ATX 30 nM final, 30° C.
Description: Human ATX Enzyme Inhibition Assay
ATX inhibition was measured by a fluorescence quenching assay using a specifically labeled substrate analogue (MR121 substrate). To obtain this MR121 substrate, BOC and TBS protected 6-amino-hexanoic acid (R)-3-({2-[3-(2-{2-[2-(2-amino-ethoxy)-ethoxy]-ethoxy}-ethoxy)-propionylamino]-ethoxy}-hydroxy-phosphoryloxy)-2-hydroxy-propyl ester (Ferguson et al., Org Lett 2006, 8 (10), 2023) was labeled with MR121 fluorophore (CAS 185308-24-1, 1-(3-carboxypropyl)-11-ethyl-1,2,3,4,8,9,10,11-octahydro-dipyrido[3,2-b:2′,3′-i]phenoxazin-13-ium) on the free amine of the ethanolamine side and then, after deprotection, subsequently with tryptophan on the side of the aminohexanoic acid. Assay working solutions were made as follows: Assay buffer (50 mM Tris-HCl, 140 mM NaCl, 5 mM KCl, 1 mM CaCl2, 1 mM MgCl2, 0.01% Triton-X-100, pH 8.0; ATX solution: ATX (human His-tagged) stock solution (1.08 mg/mL in 20 mM bicine, pH 8.5, 0.15 M NaCl, 10% glycerol, 0.3% CHAPS, 0.02% NaN3), diluted to 1.4-2.5× final concentration in assay buffer; MR121 substrate solution: MR121 substrate stock solution (800 μM MR121 substrate in DMSO), diluted to 2-5× final concentration in assay buffer. Test compounds (10 mM stock in DMSO, 8 μL) were obtained in 384 well sample plates (Corning Costar #3655) and diluted with 8 μL DMSO. Row-wise serial dilutions were made by transferring 8 μL cpd solution to the next row up to row O. The compound and control solutions were mixed five times and 2 μL were transferred to 384 well assay plates (Corning Costar #3702). Then, 15 μL of 41.7 nM ATX solution was added (30 nM final concentration), mixed five times and then incubated for 15 minutes at 30° C. 10 μL of MR121 substrate solution was added (1 μM final concentration), mixed 30 times and then incubated for 15 minutes at 30° C.

SMILES | IC50 [nM]
NS(=O)(=O)c1ccc(C(=O)N2C[C@H]3CN(C(=O)CCc4ccc(OC(F)(F)F)cc4)C[C@@H]3C2)cn1 [Example 1.20, 5-{(3 aR,6aR)-5-[3-(4-trifluoromethoxy-phenyl)-propionyl]-hexahydro-pyrrolo[3,4-c]pyrrole-2-carbonyl}-pyridine-2-sulfonic acid amide] | 19
CCOc1cc(C(=O)N2C[C@@H]3CN(C(=O)c4ccc(S(N)(=O)=O)nc4)C[C@H]3C2)nc2ccccc12 [Example 1.21, 5-((3 aS,6aS)-5-(4-ethoxyquinoline-2-carbonyl)octahydropyrrolo[3,4-c]pyrrole-2-carbonyl)pyridine-2-sulfonamide] | 118
CC(C)(C)C(=O)Nc1cc(C#N)ccc1COC(=O)N1C[C@@H]2CN(C(=O)c3ccc(S(N)(=O)=O)c(F)c3)C[C@H]2C1 [Example 1.22, (3aS,6aS)-5-(3-fluoro-4-sulfamoyl-benzoyl)-hexahydro-pyrrolo[3,4-c]pyrrole-2-carboxylic acid 4-cyano-2-(2,2-dimethyl-propionylamino)-benzyl ester] | 7
CC(C)(C)C(=O)Nc1cc(C#N)ccc1COC(=O)N1C[C@@H]2CN(C(=O)c3ccc(S(N)(=O)=O)nc3)C[C@H]2C1 [Example 1.23, (3aS,6aS)-5-(6-sulfamoyl-pyridine-3-carbonyl)-hexahydro-pyrrolo[3,4-c]pyrrole-2-carboxylic acid 4-cyano-2-(2,2-dimethyl-propionylamino)-benzyl ester] | 4
CC(C)(C)C(=O)Nc1cc(C#N)ccc1COC(=O)N1C[C@@H]2CN(C(=O)c3ccc(S(N)(=O)=O)cc3)C[C@H]2C1 [Example 1.24, (3aS,6aS)-5-(4-sulfamoyl-benzoyl)-hexahydro-pyrrolo[3,4-c]pyrrole-2-carboxylic acid 4-cyano-2-(2,2-dimethyl-propionylamino)-benzylester] | 12
CC(C)(C)C(=O)Nc1cc(C#N)ccc1COC(=O)N1C[C@@H]2CN(C(=O)c3ccc(S(N)(=O)=O)cc3F)C[C@H]2C1 [Example 1.25, (3aS,6aS)-5-(2-fluoro-4-sulfamoyl-benzoyl)-hexahydro-pyrrolo[3,4-c]pyrrole-2-carboxylic acid 4-cyano-2-(2,2-dimethyl-propionylamino)-benzyl ester] | 2
CC(C)(C)C(=O)Nc1cc(C#N)ccc1COC(=O)N1C[C@@H]2CN(C(=O)c3ccc(S(N)(=O)=O)cn3)C[C@H]2C1 [Example 1.26, (3aS,6aS)-5-(5-sulfamoyl-pyridine-2-carbonyl)-hexahydro-pyrrolo[3,4-c]pyrrole-2-carboxylic acid 4-cyano-2-(2,2-dimethyl-propionylamino)-benzyl ester] | 10
CC(=O)Nc1ccc(C(=O)N2C[C@H]3CN(C(=O)OCc4cc(Cl)cc(Cl)c4)C[C@H]3C2)cc1 [Example 2, (3aR,6aS)-3,5-Dichlorobenzyl 5-(4-acetamidobenzoyl)hexahydropyrrolo[3,4-c]pyrrole-2(1H)-carboxylate] | 342
CC(=O)Nc1ccc(C(=O)N2C[C@H]3CN(C(=O)OCc4cc(Cl)cc(Cl)c4)C[C@H]3C2)nc1 [Example 2.01, (3aR,6aS)-3,5-Dichlorobenzyl 5-(5-acetamidopicolinoyl)hexahydropyrrolo[3,4-c]pyrrole-2(1H)-carboxylate] | 1500
NS(=O)(=O)c1ccc(S(=O)(=O)N2C[C@H]3CN(C(=O)OCc4cc(Cl)cc(Cl)c4)C[C@H]3C2)cc1 [Example 3, (3aR,6aS)-3,5-Dichlorobenzyl 5-(4-sulfamoylphenylsulfonyl)hexahydropyrrolo[3,4-c]pyrrole-2(1H)-carboxylate] | 31
O=C(OCc1cc(Cl)cc(Cl)c1)N1C[C@@H]2CN(C(=O)c3ccc(-c4nnn[nH]4)cc3)C[C@@H]2C1 [Example 4, (3aR,6aS)-3,5-Dichlorobenzyl 5-(4-(1H-tetrazol-5-yl)benzoyl)hexahydropyrrolo[3,4-c]pyrrole-2(1H)-carboxylate] | 573
O=C(O)c1ccc(C(=O)N2C[C@H]3CN(C(=O)OCc4cc(Cl)cc(Cl)c4)C[C@H]3C2)cc1 [Example 5, 4-((3aR,6aS)-5-((3,5-Dichlorobenzyloxy)carbonyl)octahydropyrrolo[3,4-c]pyrrole-2-carbonyl)benzoic acid] | 1340
CS(=O)(=O)Nc1ccc(C(=O)N2C[C@H]3CN(C(=O)OCc4cc(Cl)cc(Cl)c4)C[C@H]3C2)nc1 [Example 6, (3aR,6aS)-3,5-Dichlorobenzyl 5-(5-(methylsulfonamido)picolinoyl)hexahydropyrrolo[3,4-c]pyrrole-2(1H)-carboxylate] | 622
CS(=O)(=O)c1cc(Cl)cc(COC(=O)N2C[C@@H]3CN(C(=O)c4ccc(S(N)(=O)=O)cc4)C[C@H]3C2)c1 [Example 7, (3aS,6aS)-5-(4-Sulfamoyl-benzoyl)-hexahydro-pyrrolo[3,4-c]pyrrole-2-carboxylic acid 3-chloro-5-methanesulfonyl-benzyl ester] | 14.5
NS(=O)(=O)c1ccc(C(=O)N2C[C@H]3CN(C(=O)OCc4ccc(OC(F)(F)F)cc4F)C[C@H]3C2)cc1 [Example 7.01, (3aR,6aS)-5-(4-sulfamoyl-benzoyl)-hexahydro-pyrrolo[3,4-c]pyrrole-2-carboxylic acid 2-fluoro-4-trifluoromethoxy-benzyl ester] | 1
NS(=O)(=O)c1ccc(C(=O)N2C[C@H]3CN(C(=O)OCc4ccc(OC(F)(F)F)cc4)C[C@H]3C2)cc1 [Example 7.02, (3aR,6aS)-5-(4-sulfamoyl-benzoyl)-hexahydro-pyrrolo[3,4-c]pyrrole-2-carboxylic acid 4-trifluoromethoxy-benzyl ester] | 3
NS(=O)(=O)c1ccc(C(=O)N2C[C@H]3CN(C(=O)OCc4ccc(OC(F)(F)F)cc4)C[C@@H]3C2)cc1 [Example 7.03, (3aS,6aS)-5-(4-sulfamoyl-benzoyl)-hexahydro-pyrrolo[3,4-c]pyrrole-2-carboxylic acid 4-trifluoromethoxy-benzyl ester] | 4
NS(=O)(=O)c1ccc(C(=O)N2C[C@H]3CN(C(=O)CCc4ccc(OC(F)(F)F)cc4)C[C@@H]3C2)cc1 [Example 8, 4-{(3aR,6aR)-5-[3-(4-Trifluoromethoxy-phenyl)-propionyl]-hexahydro-pyrrolo[3,4-c]pyrrole-2-carbonyl}-benzenesulfonamide] | 8.5
NS(=O)(=O)c1ccc(C(=O)N2C[C@H]3CN(C(=O)/C=C/c4ccc(OC(F)(F)F)cc4)C[C@@H]3C2)cc1 [Example 8.01, 4-{(3aR,6aR)-5-[(E)-3-(4-trifluoromethoxy-phenyl)-acryloyl]-hexahydro-pyrrolo[3,4-c]pyrrole-2-carbonyl}-benzenesulfonamide] | 7.5
CC(C)Oc1cc(C(=O)N2C[C@H]3CN(C(=O)c4ccc(S(N)(=O)=O)cc4)C[C@H]3C2)cc2ccccc12 [Example 8.02, 4-[(3aR,6aS)-5-(4-isopropoxy-naphthalene-2-carbonyl)-hexahydro-pyrrolo[3,4-c]pyrrole-2-carbonyl]-benzenesulfonamide] | 14
NS(=O)(=O)c1ccc(C(=O)N2C[C@@H]3CN(C(=O)c4cc5ccccc5c(OCC(F)(F)F)n4)C[C@@H]3C2)cc1 [Example 8.03, 4-{(3aR,6aS)-5-[1-(2,2,2-trifluoro-ethoxy)-isoquinoline-3-carbonyl]-hexahydro-pyrrolo[3,4-c]pyrrole-2-carbonyl}-benzenesulfonamide] | 5.5
Cn1c(C(=O)N2C[C@H]3CN(C(=O)c4ccc(S(N)(=O)=O)cc4)C[C@H]3C2)cc2cc(OC(F)(F)F)ccc21 [Example 8.04, 4-[(3aR,6aS)-5-(1-Methyl-5-trifluoromethoxy-1H-indole-2-carbonyl)-hexahydro-pyrrolo[3,4-c]pyrrole-2-carbonyl]-benzenesulfonamide] | 166
CC(C)Oc1cc(C(=O)N2C[C@H]3CN(C(=O)c4ccc(S(N)(=O)=O)cc4)C[C@H]3C2)nc2ccccc12 [Example 8.05, 4-[(3aR,6aS)-5-(4-Isopropoxy-quinoline-2-carbonyl)-hexahydro-pyrrolo[3,4-c]pyrrole-2-carbonyl]-benzenesulfonamide] | 93
NS(=O)(=O)c1ccc(C(=O)N2C[C@H]3CN(C(=O)c4ccc(-c5ccc(Cl)cc5)cc4)C[C@H]3C2)cc1 [Example 8.06, 4-[(3 aS,6aR)-5-(4′-chloro-biphenyl-4-carbonyl)-hexahydro-pyrrolo[3,4-c]pyrrole-2-carbonyl]-benzenesulfonamide] | 3
